# Measurements from patent US10370387B2, “Tricyclic fused thiophene derivatives as JAK inhibitors” (Incyte Corporation, priority 2012, dated 2019).
# Structures can show the parent of a compound that is named as a salt.
# Tested on: human JAK1
# Assay: In vitro JAK kinase assay (HTRF, phosphorylation of biotinylated peptide), JAK1
# Assay type: biochemical
# Conditions: ratio of JAK2 IC50 to JAK1 IC50, 1 mM ATP
# Experimental: Compounds herein were tested for inhibitory activity of JAK targets according to the following in vitro assay described in Park et al., Analytical Biochemistry 1999, 269, 94-104. The catalytic domains of human JAK1 (a.a. 837-1142), JAK2 (a.a. 828-1132) and JAK3 (a.a. 781-1124) were expressed using baculovirus in insect cells and purified. The catalytic activity of JAK1, JAK2 or JAK3 was assayed by measuring the phosphorylation of a biotinylated peptide. The phosphorylated peptide was detected by homogenous time resolved fluorescence (HTRF). IC50s of compounds were measured for each kinase in the 40 μL reactions that contain the enzyme, ATP and 500 nM peptide in 50 mM Tris (pH 7.8) buffer with 100 mM NaCl, 5 mM DTT, and 0.1 mg/mL (0.01%) BSA. For the 1 mM IC50 measurements, ATP concentration in the reactions was 1 mM. Reactions were carried out at room temperature for 1 hour and then stopped with 20 μL 45 mM EDTA, 300 nM SA-APC, 6 nM Eu-Py20 in assay buffer (Perkin Elmer, Boston, Mass.). Binding to the Europium labeled antibody took place for 40 minutes and HTRF signal was measured on a PHERA star plate reader (BMG, Cary, N.C.). The Example compounds were each tested in the Example A assay (see Table 1 for data for the compounds of the examples as tested by the assay of Example A at 1 mM ATP).
row,Molecule,JAK2/JAK1
1,"C[C@@H](O)c1nc2cnc3ccsc3c2n1[C@H]1CC[C@H](CF)CC1 [Example 12, (1R)-1-{1-[trans-4-(Fluoromethyl)cyclohexyl]-1H-imidazo[4,5-d]thieno[3,2-b]pyridin-2-yl}ethanol]",>10
2,"CCc1nc2cnc3ccsc3c2n1[C@H]1CC[C@H](CC#N)OC1 [Example 39, [(2R,5S)-5-(2-Ethyl-1H-imidazo[4,5-d]thieno[3,2-b]pyridin-1-yl)tetrahydro-2H-pyran-2-yl]acetonitrile]",>10
3,"C[C@@H](O)c1nc2cnc3ccsc3c2n1C1CCC(O)(CC#N)CC1 (single isomer, unassigned) [24 (second peak)]",>10
4,"C[C@@H](O)c1nc2cnc3ccsc3c2n1C1CCC(NCCC#N)CC1 (single isomer, unassigned) [30 (second peak)]",>10
5,"CS(=O)(=O)NCc1nc2cnc3ccsc3c2n1[C@H]1CC2CCC1C2 (stereo partly drawn) [Example 22, N-((1-((2S)-Bicyclo[2.2.1]heptan-2-yl)-1H-imidazo[4,5-d]thieno[3,2-b]pyridin-2-yl)methyl)methanesulfonamide]",>4
6,"C[C@@H](O)c1nc2cnc3ccsc3c2n1[C@H]1CC[C@H](CC#N)CC1 [Example 2, (trans-4-{2-[(1R)-1-Hydroxyethyl]-1H-imidazo[4,5-d]thieno[3,2-b]pyridin-1-yl}cyclohexyl)acetonitrile]",>10
7,"Cc1nc2cnc3ccsc3n2c1-c1ccc(CC#N)cc1 [Example 33, [4-(7-Methylimidazo[1,2-a]thieno[3,2-e]pyrazin-8-yl)phenyl]acetonitrile]",>7
8,"C[C@@H](O)c1nc2cnc3ccsc3c2n1C1CCCC(CCC#N)C1 (stereo partly drawn) [Example 32, 3-(3-{2-[(1R)-1-Hydroxyethyl]-1H-imidazo[4,5-d]thieno[3,2-b]pyridin-1-yl}cyclohexyl)propanenitrile]",>10
9,"C[C@@H](O)c1nc2cnc3ccsc3c2n1C1CCC(NCCC#N)CC1 (single isomer, unassigned) [30 (first peak)]",>2
10,"((1R,2S,4S)-2-Hydroxy-4-{2-[(1R)-1-hydroxyethyl]-1H-imidazo[4,5-d]thieno[3,2-b]pyridin-1-yl}cyclohexyl)acetonitrile trifluoacetate and ((1S,2R,4R)-2-hydroxy-4-{2-[(1R)-1-hydroxyethyl]-1H-imidazo[4,5-d]thieno[3,2-b]pyridin-1-yl}cyclohexyl)acetonitrile trifluoacetate [37 (first peak)]",>10
11,"C[C@@H](O)c1nc2cnc3ccsc3c2n1[C@H]1CC[C@H](CCS(C)(=O)=O)CC1 [Example 5, (1R)-1-(1-{trans-4-[2-(Methylsulfonyl)ethyl]cyclohexyl}-1H-imidazo[4,5-d]thieno[3,2-b]pyridin-2-yl)ethanol]",>10
12,"C[C@@H](O)c1nc2cnc3ccsc3c2n1[C@H]1CCCOC1 [Example 1, (1R)-1-{1-[(3S)-Tetrahydro-2H-pyran-3-yl]-1H-imidazo[4,5-d]thieno[3,2-b]pyridin-2-yl}ethanol]",>3
13,"C[C@@H](O)c1nc2cnc3ccsc3c2n1C1CCC(O)(CC#N)CC1 (single isomer, unassigned) [24 (first peak)]",>10
14,"C[C@@H](O)c1nc2cnc3ccsc3c2n1[C@H]1CC[C@H](CC#N)CC1.Cl [Example 10, (trans-4-{2-[(1R)-1-Hydroxyethyl]-1H-imidazo[4,5-d]thieno[3,2-b]pyridin-1-yl}cyclohexyl)acetonitrile HCl salt]",>10
15,"C[C@H](O)c1nc2cnc3ccsc3c2n1[C@H]1CC[C@H](CC#N)OC1 [Example 45, ((2R,5S)-5-{2-[(1S)-1-Hydroxyethyl]-1H-imidazo[4,5-d]thieno[3,2-b]pyridin-1-yl}tetrahydro-2H-pyran-2-yl)acetonitrile]",>10
16,"C[C@@H](O)c1nc2cnc3ccsc3c2n1[C@H]1CC[C@H](CO)CC1 [Example 11, (1R)-1-{1-[trans-4-(Hydroxymethyl)cyclohexyl]-1H-imidazo[4,5-d]thieno[3,2-b]pyridin-2-yl}ethanol]",>10
17,"N#CC[C@H]1CC[C@H](n2c(C3CNC3)nc3cnc4ccsc4c32)CC1 [Example 28, [trans-4-(2-Azetidin-3-yl-1H-imidazo[4,5-d]thieno[3,2-b]pyridin-1-yl)cyclohexyl]acetonitrile]",>7
18,"CS(=O)(=O)NCc1nc2cnc3ccsc3c2n1[C@H]1CC[C@H](CC#N)CC1 [Example 18, N-({1-[trans-4-(Cyanomethyl)cyclohexyl]-1H-imidazo[4,5-d]thieno[3,2-b]pyridin-2-yl}methyl)methanesulfonamide]",>10
19,"Cc1nc2cnc3ccsc3c2n1[C@@H]1CC[C@@H](CC#N)[C@@H](O)C1 (mixture of isomers) [Example 34, Mixture of [(1R, 2R, 4S)-2-hydroxy-4-(2-methyl-1H-imidazo[4,5-d]thieno[3,2-b]pyridin-1-yl)cyclohexyl]acetonitrile trifluoroacetate and [(1S, 2S, 4R)-2-hydroxy-4-(2-methyl-1H-imidazo[4,5-d]thieno[3,2-b]pyridin-1-yl)cyclohexyl]acetonitrile trifluoroacetate]",>10
20,"CNS(=O)(=O)C[C@H]1CC[C@H](n2c([C@@H](C)O)nc3cnc4ccsc4c32)CC1 [Example 14, 1-(trans-4-{2-[(1R)-1-hydroxyethyl]-1H-imidazo[4,5-d]thieno[3,2-b]pyridin-1-yl}cyclohexyl)-N-methylmethanesulfonamide]",>5
21,"CC(C)c1nc2cnc3ccsc3c2n1[C@H]1CC[C@H](CC#N)OC1 [Example 42, [(2R,5S)-5-(2-Isopropyl-1H-imidazo[4,5-d]thieno[3,2-b]pyridin-1-yl)tetrahydro-2H-pyran-2-yl]acetonitrile]",>10

# Further lines, results first:
row,JAK2/JAK1,Molecule
1,>10,"C[C@@H](O)c1nc2cnc3ccsc3c2n1C1CCN(CCCC(F)(F)F)CC1 [Example 60, (1R)-1-{1-[1-(4,4,4-Trifluorobutyl)piperidin-4-yl]-1H-imidazo[4,5-d]thieno[3,2-b]pyridin-2-yl}ethanol]"
2,>10,"C[C@@H](O)c1nc2cnc3ccsc3c2n1[C@H]1CC[C@H](CNC(=O)N(C)C)CC1 [Example 81, N′-[(trans-4-{2-[(1R)-1-Hydroxyethyl]-1H-imidazo[4,5-d]thieno[3,2-b]pyridin-1-yl}cyclohexyl)methyl]-N,N-dimethylurea]"
3,>10,"C[C@@H](O)c1nc2cnc3ccsc3c2n1[C@H]1CC[C@H](CNS(C)(=O)=O)CC1 [Example 80, N-[(trans-4-{2-[(1R)-1-Hydroxyethyl]-1H-imidazo[4,5-d]thieno[3,2-b]pyridin-1-yl}cyclohexyl)methyl]methanesulfonamide]"
4,>10,"CCCOC(=O)NC[C@H]1CC[C@H](n2c([C@@H](C)O)nc3cnc4ccsc4c32)CC1 [Example 83, Propyl [(trans-4-{2-[(1R)-1-hydroxyethyl]-1H-imidazo[4,5-d]thieno[3,2-b]pyridin-1-yl}cyclohexyl)methyl]carbamate]"
5,>10,"C[C@@H](O)c1nc2cnc3ccsc3c2n1[C@H]1CC[C@H](CC#N)[C@H](N)C1 [Example 67, ((1R,2R,4S)-2-Amino-4-{2-[(1R)-1-hydroxyethyl]-1H-imidazo[4,5-d]thieno[3,2-b]pyridin-1-yl}cyclohexyl)acetonitrile]"
6,>10,"N#CCc1nc2cnc3ccsc3c2n1[C@H]1CC[C@H](CC#N)CC1 [Example 90, {1-[trans-4-(Cyanomethyl)cyclohexyl]-1H-imidazo[4,5-d]thieno[3,2-b]pyridin-2-yl}acetonitrile]"
7,>10,"COC(=O)NC[C@H]1CC[C@H](n2c(CC#N)nc3cnc4ccsc4c32)CC1 [Example 86, Methyl ({trans-4-[2-(cyanomethyl)-1H-imidazo[4,5-d]thieno[3,2-b]pyridin-1-yl]cyclohexyl}methyl)carbamate]"
8,>10,"C[C@@H](O)c1nc2cnc3ccsc3c2n1[C@H]1CCCN(C(=O)CCc2cccnc2)C1 [Example 54, (1R)-1-{1-[(3S)-1-(3-Pyridin-3-ylpropanoyl)piperidin-3-yl]-1H-imidazo[4,5-d]thieno[3,2-b]pyridin-2-yl}ethanol]"
9,>10,"C[C@@H](O)c1nc2cnc3ccsc3c2n1[C@H]1CCCN(C(=O)CCC(F)(F)F)C1 [Example 52, (1R)-1-{1-[(3S)-1-(4,4,4-Trifluorobutanoyl)piperidin-3-yl]-1H-imidazo[4,5-d]thieno[3,2-b]pyridin-2-yl}ethanol]"
10,>10,"CCc1nc2cnc3ccsc3c2n1[C@H]1CC[C@H](CC#N)CC1 [Example 47, [trans-4-(2-Ethyl-1H-imidazo[4,5-d]thieno[3,2-b]pyridin-1-yl)cyclohexyl]acetonitrile]"
11,>10,"CC(F)c1nc2cnc3ccsc3c2n1[C@H]1CC[C@H](CC#N)OC1 (stereo partly drawn) [Example 71, {(2R,5S)-5-[2-(1-Fluoroethyl)-1H-imidazo[4,5-d]thieno[3,2-b]pyridin-1-yl]tetrahydro-2H-pyran-2-yl}acetonitrile]"
12,>10,"CC(=O)NC[C@H]1CC[C@H](n2c([C@@H](C)O)nc3cnc4ccsc4c32)CC1 [Example 79, N-[(trans-4-{2-[(1R)-1-Hydroxyethyl]-1H-imidazo[4,5-d]thieno[3,2-b]pyridin-1-yl}cyclohexyl)methyl]acetamide]"
